Laboratory results from publication PMC8206213, “An L-2-hydroxyglutarate biosensor based on specific transcriptional regulator LhgR” (Nature Communications, 2021).
Where “and” joins values, the source holds several entries; their conditions need not be identical. Equal entries are not always repeated.

Assay: LHGFR expressed in E. coli BL21(DE3), response to exogenous L-2-HG (time course and dose-response)
Format: cell-based
Conditions: Fig. 5a
Experimental: To characterize the sensitivity and specificity of LHGFR expressed in E. coli BL21(DE3), 90 μL cell suspensions following 8 h carbon starvation were mixed with 10 μL increasing concentrations of L-2-HG or other compounds, and then added into a black 96-well plate (total 100 μL/per well), the fluorescence intensities were determined using an EnSight microplate reader (PerkinElmer, USA) and the following instrument settings: excitation at 430 nm, emission at 485 nm (mTFP) and 528 nm (Venus), time intervals of 5 min, the temperature at 37 °C, and shake at 180 rpm.

For `O=C(O)CC[C@H](O)C(=O)O` [L-2-HG, L-2-Hydroxyglutarate], the Emission ratio (100 μM L-2-HG, 45 min) was 1.032 and 1.026 and 1.029, the Emission ratio (100 μM L-2-HG, 50 min) was 1.0383 and 1.034 and 1.036 and the Emission ratio (100 μM L-2-HG, 55 min) was 1.032 and 1.026 and 1.035. The Emission ratio (100 μM L-2-HG, 60 min) was 1.021 and 1.025 and 1.037, the Emission ratio (100 μM L-2-HG, 65 min) was 1.0313 and 1.027 and 1.042 and the Emission ratio (100 μM L-2-HG, 70 min) was 1.0328 and 1.039 and 1.045. For the same compound, the Emission ratio (100 μM L-2-HG, 75 min) was 1.033 and 1.036 and 1.056, the Emission ratio (100 μM L-2-HG, 80 min) was 1.038 and 1.023 and 1.047 and the Emission ratio (100 μM L-2-HG, 85 min) was 1.027 and 1.0315 and 1.0551. The Emission ratio (100 μM L-2-HG, 90 min) was 1.039 and 1.022 and 1.053, the Emission ratio (200 μM L-2-HG, 0 min) was 0.9917 and 0.9725 and 0.9805 and the Emission ratio (200 μM L-2-HG, 5 min) was 1.014 and 1.003 and 1.0079. For the same compound, the Emission ratio (200 μM L-2-HG, 10 min) was 1.023 and 1.0171 and 1.02, the Emission ratio (200 μM L-2-HG, 15 min) was 1.025 and 1.029 and 1.038 and the Emission ratio (200 μM L-2-HG, 20 min) was 1.048 and 1.05 and 1.039. The Emission ratio (200 μM L-2-HG, 25 min) was 1.049 and 1.058 and 1.042, the Emission ratio (200 μM L-2-HG, 30 min) was 1.046 and 1.049 and 1.051 and the Emission ratio (200 μM L-2-HG, 35 min) was 1.046 (2×) and 1.055. The Emission ratio (200 μM L-2-HG, 40 min) was 1.05 and 1.054 and 1.06, the Emission ratio (200 μM L-2-HG, 45 min) was 1.052 and 1.0481 and 1.064 and the Emission ratio (200 μM L-2-HG, 50 min) was 1.061 and 1.056 and 1.069. The Emission ratio (200 μM L-2-HG, 55 min) was 1.06 and 1.0497 and 1.072, the Emission ratio (200 μM L-2-HG, 60 min) was 1.062 and 1.046 and 1.073 and the Emission ratio (200 μM L-2-HG, 65 min) was 1.05 and 1.055 and 1.074. The Emission ratio (200 μM L-2-HG, 70 min) was 1.061 and 1.042 and 1.07, the Emission ratio (200 μM L-2-HG, 75 min) was 1.068 and 1.046 and 1.072 and the Emission ratio (200 μM L-2-HG, 80 min) was 1.063 and 1.037 and 1.071. The Emission ratio (200 μM L-2-HG, 85 min) was 1.058 and 1.051 and 1.076, the Emission ratio (200 μM L-2-HG, 90 min) was 1.065 and 1.04 and 1.07 and the Emission ratio (1 mM L-2-HG, 0 min) was 1.009 and 0.986 and 0.9798. For the same compound, the Emission ratio (1 mM L-2-HG, 5 min) was 1.043 and 1.0226 and 1.019, the Emission ratio (1 mM L-2-HG, 10 min) was 1.061 and 1.055 and 1.04 and the Emission ratio (1 mM L-2-HG, 15 min) was 1.087 and 1.082 and 1.067. For the same compound, the Emission ratio (1 mM L-2-HG, 20 min) was 1.121 and 1.102 and 1.088, the Emission ratio (1 mM L-2-HG, 25 min) was 1.134 and 1.124 and 1.105 and the Emission ratio (1 mM L-2-HG, 30 min) was 1.1596 and 1.147 and 1.142. For the same compound, the Emission ratio (1 mM L-2-HG, 35 min) was 1.168 and 1.165 and 1.162, the Emission ratio (1 mM L-2-HG, 40 min) was 1.202 and 1.191 and 1.172 and the Emission ratio (1 mM L-2-HG, 45 min) was 1.22 and 1.2003 and 1.196. For the same compound, the Emission ratio (1 mM L-2-HG, 50 min) was 1.242 and 1.221 and 1.214, the Emission ratio (1 mM L-2-HG, 55 min) was 1.254 and 1.245 and 1.226 and the Emission ratio (1 mM L-2-HG, 60 min) was 1.262 and 1.251 and 1.2291. For the same compound, the Emission ratio (1 mM L-2-HG, 65 min) was 1.264 and 1.242 and 1.229, the Emission ratio (1 mM L-2-HG, 70 min) was 1.261 and 1.241 and 1.2295 and the Emission ratio (1 mM L-2-HG, 75 min) was 1.265 and 1.246 and 1.229. The Emission ratio (1 mM L-2-HG, 80 min) was 1.265 and 1.238 and 1.24, the Emission ratio (1 mM L-2-HG, 85 min) was 1.257 and 1.244 and 1.238 and the Emission ratio (1 mM L-2-HG, 90 min) was 1.253 and 1.243 (2×). The Emission ratio (2 mM L-2-HG, 0 min) was 1.001 and 0.9869 and 0.9858, the Emission ratio (2 mM L-2-HG, 5 min) was 1.042 and 1.028 and 1.0185 and the Emission ratio (2 mM L-2-HG, 10 min) was 1.085 and 1.067 and 1.059. For the same compound, the Emission ratio (2 mM L-2-HG, 15 min) was 1.125 and 1.11 and 1.101, the Emission ratio (2 mM L-2-HG, 20 min) was 1.179 and 1.162 and 1.146 and the Emission ratio (2 mM L-2-HG, 25 min) was 1.241 and 1.208 and 1.197. The Emission ratio (2 mM L-2-HG, 30 min) was 1.288 and 1.254 and 1.257, the Emission ratio (2 mM L-2-HG, 35 min) was 1.301 and 1.278 and 1.2733 and the Emission ratio (2 mM L-2-HG, 40 min) was 1.333 and 1.31 and 1.292. For the same compound, the Emission ratio (2 mM L-2-HG, 45 min) was 1.337 and 1.329 and 1.307, the Emission ratio (2 mM L-2-HG, 50 min) was 1.347 and 1.335 and 1.324 and the Emission ratio (2 mM L-2-HG, 55 min) was 1.344 and 1.327 and 1.336. The Emission ratio (2 mM L-2-HG, 60 min) was 1.352 and 1.339 and 1.329, the Emission ratio (2 mM L-2-HG, 65 min) was 1.34 and 1.338 and 1.3346 and the Emission ratio (2 mM L-2-HG, 70 min) was 1.362 and 1.355 and 1.346. For the same compound, the Emission ratio (2 mM L-2-HG, 75 min) was 1.365 and 1.3372 and 1.347, the Emission ratio (2 mM L-2-HG, 80 min) was 1.351 and 1.344 (2×) and the Emission ratio (2 mM L-2-HG, 85 min) was 1.353 and 1.367 and 1.357. The Emission ratio (2 mM L-2-HG, 90 min) was 1.364 and 1.351 and 1.361, the Emission ratio (10 mM L-2-HG, 0 min) was 0.9626 and 0.9634 and 0.9687 and the Emission ratio (10 mM L-2-HG, 5 min) was 1.087 and 1.079 and 1.06. The Emission ratio (10 mM L-2-HG, 10 min) was 1.2277 and 1.2165 and 1.18, the Emission ratio (10 mM L-2-HG, 15 min) was 1.322 and 1.305 and 1.285 and the Emission ratio (10 mM L-2-HG, 20 min) was 1.375 and 1.367 and 1.334. The Emission ratio (10 mM L-2-HG, 25 min) was 1.391 and 1.39 and 1.353, the Emission ratio (10 mM L-2-HG, 30 min) was 1.418 and 1.395 and 1.38 and the Emission ratio (10 mM L-2-HG, 35 min) was 1.427 and 1.411 and 1.3928. The Emission ratio (10 mM L-2-HG, 40 min) was 1.439 and 1.431 and 1.3904, the Emission ratio (10 mM L-2-HG, 45 min) was 1.426 and 1.425 and 1.4013 and the Emission ratio (10 mM L-2-HG, 50 min) was 1.427 and 1.438 and 1.392. The Emission ratio (10 mM L-2-HG, 55 min) was 1.431 (2×) and 1.402, the Emission ratio (10 mM L-2-HG, 60 min) was 1.432 and 1.435 and 1.413 and the Emission ratio (10 mM L-2-HG, 65 min) was 1.425 and 1.426 and 1.404. For the same compound, the Emission ratio (10 mM L-2-HG, 70 min) was 1.4381 and 1.438 and 1.417, the Emission ratio (10 mM L-2-HG, 75 min) was 1.426 and 1.4264 and 1.415 and the Emission ratio (10 mM L-2-HG, 80 min) was 1.4478 and 1.43 and 1.416. For the same compound, the Emission ratio (10 mM L-2-HG, 85 min) was 1.446 and 1.432 and 1.415 and the Emission ratio (10 mM L-2-HG, 90 min) was 1.432 and 1.427 and 1.418.
